The record followed here is patent US20240261474A1, “BIODEGRADABLE TISSUE SCAFFOLD WITH SECONDARY MATRIX TO HOST WEAKLY ADHERENT CELLS” (THE U.S.A., as represented by the Secretary, Department of …, priority 2021, published 2024).

Structures are written as SMILES. “Also recorded” adds a separate entry of the source.

One experiment has as its system iPSC-RPE cells. Kind of experiment: Phagocytosis test with labelled bovine outer segments, flow cytometry. As to conditions: 4 hours incubation with outer segments; One-way ANOVA showed no difference. In kind it is cell-based, human. As to the method: iPSC-RPE cells were provided purified bovine outer segment (mostly rod photoreceptors) to phagocytose. The outer segments were labelled with a dye that fluoresce when the outer segments are phagocytosed. RPE cells were incubated for 4 hours with outer segments and then analyzed with flow cytometry to measure outer segment ingestion or put back in the incubator for 20 hours before performing flow cytometry to measure outer segment digestion.

The test system of another experiment is acid phosphatase. Kind of experiment: Acid phosphatase activity in lysates of treated RPE cells (p-nitrophenyl phosphate). In kind it is cell-based, human. As to conditions: compared with DMSO- or endo-IWR-1-treated cells. As to the method:
Acid phosphatase has higher expression in the macula (Boulton et al., Br. J. Opthalm. 78:125-9, doi: 10.1136/bjo.78.2.125, 1994). This enzyme has an important role in photoreceptor outer segment digestion. The acid phosphatase activity was determined in cells treated with DMSO, AGN 193109 or endo-IWR-1. RPE cells were lysed in distilled water to extract the enzyme. The lysates were then incubated with p-nitrophenyl phosphate, a phosphatase substrate that turn yellow when dephosphorylated by acid phosphatase. The color of the solution was measured with a spectrophotometer to estimate the enzyme activity.

For `O=C(Nc1cccc2cccnc12)c1ccc(N2C(=O)C3C4C=CC(C4)C3C2=O)cc1` (stereo not drawn) [ENDO-1-IWR, 4-(1,3,3a,4,7,7a-Hexahydro-1,3-dioxo-4,7-methano-2H-isoindol-2-yl)-N-8-quinolinyl-Benzamide], the outer segment ingestion result in the experiment on iPSC-RPE cells was “ingest (peripheral cells) more outer segments”. Consider `Cc1ccc(C2=CCC(C)(C)c3ccc(C#Cc4ccc(C(=O)O)cc4)cc32)cc1` [AGN 193109, 4-[2-[5,6-Dihydro-5,5-dimethyl-8-(4-methylphenyl)-2-naphthalenyl]ethynyl]-benzoic acid], for which the acid phosphatase activity result in the experiment on acid phosphatase is “higher acid phosphatase activity than DMSO- or endo-IWR-1-treated cells; also recorded: higher acid phosphatase activity”.
